“Also recorded” adds a separate entry of the source.
Legend:
[1] = test system: SARS-CoV-2 Delta variant (B.1.617.2); assay type: cell-based
[2] = test system: SARS-CoV-2 Delta variant (B.1.617.2); test: Virucidal assay against SARS-CoV-2; assay type: cell-based; conditions: for virucidal activity against SARS-CoV-2: in words

C[C@H](CCC(=O)O)[C@H]1CC[C@H]2[C@@H]3[C@H](O)C[C@@H]4C[C@H](O)CC[C@]4(C)[C@H]3CC[C@]12C [CDCA (13), chenodeoxycholic acid]
antiviral activity toward SARS-CoV-2 [1]: did not exhibit antiviral activity; also recorded: did not exhibit antiviral or virucidal activity | virucidal activity against SARS-CoV-2 [2]: did not exhibit antiviral or virucidal activity | virucidal activity against SARS-CoV-2 [2]; 13: did not show activity

C[C@H](CCC(=O)O)[C@H]1CC[C@H]2[C@@H]3CC[C@@H]4C[C@H](O)CC[C@]4(C)[C@H]3C[C@H](O)[C@]12C [DCA (5), deoxycholic acid]
antiviral activity toward SARS-CoV-2 [1]: did not exhibit antiviral activity; also recorded: did not exhibit antiviral or virucidal activity | virucidal activity against SARS-CoV-2 [2]: did not exhibit antiviral or virucidal activity | virucidal activity against SARS-CoV-2 ([2]; listed as DCA, 5): did not show activity

C[C@H](CCC(=O)O)[C@H]1CC[C@H]2[C@@H]3CC[C@@H]4C[C@H](O)CC[C@]4(C)[C@H]3CC[C@]12C [LCA (1), lithocholic acid]
antiviral activity toward SARS-CoV-2 [1]: did not exhibit antiviral activity | SI (selectivity index) ([2]; SI = CC50/EC50, virucidal assay): >5.16

C[C@H](CCC(=O)O)[C@H]1CC[C@H]2[C@@H]3[C@@H](O)C[C@@H]4C[C@H](O)CC[C@]4(C)[C@H]3CC[C@]12C [UDCA (9), ursodeoxycholic acid]
antiviral activity toward SARS-CoV-2 [1]: did not exhibit antiviral activity; also recorded: did not exhibit antiviral or virucidal activity | virucidal activity against SARS-CoV-2 [2]: did not exhibit antiviral or virucidal activity | virucidal activity against SARS-CoV-2 [2]; 9: did not show activity

C[C@H](CCC(=O)[O-])[C@H]1CC[C@H]2[C@@H]3CC[C@@H]4C[C@H](O)CC[C@]4(C)[C@H]3CC[C@]12C.C[N+](C)(C)CCO [[LCA][Z] (4)]
virucidal activity, times lower than the free acid LCA (1) ([2]; ratio of EC50 values): 3.27 times
